15 compounds from patent publication US8952034B2, “Fused heterocyclic compounds as ion channel modulators” (Gilead Sciences, Inc., priority 2009, dated 2015) can be followed below.

The test deals with wild-type human cardiac sodium channel, hNav1.5 (Homo sapiens, UniProt Q14524). Description: Late INa screening assay (automated whole cell patch clamp, PatchXpress). The class given is cell-based. Particulars: HEK293 cells expressing hNav1.5, late INa generated with 10 μM Tefluthrin (or 50 nM ATX II); for inhibition at 10 µM: compound at 10 μM, read-out: LateINa_10 uM (percent block of late INa); for inhibition at 1 µM: compound at 1 μM, read-out: LateINa_1 uM (percent block of late INa). How it is done: The late sodium current (Late INa) and peak sodium current (Peak INa) assays are performed on an automated electrophysiology platform, PatchXpress 7000A (MDS Analytical Technologies, Sunnyvale, Calif.), which uses the whole cell patch clamp technique to measure currents through the cell membrane of up to 16 cells at a time. The assay uses an HEK293 (human embryonic kidney) cell line heterologously expressing the wild-type human cardiac sodium channel, hNav1.5, purchased from Millipore (Billerica, Mass.). No beta subunits were coexpressed with the Na channel alpha subunit. Cells are maintained with standard tissue culture procedures and stable channel expression is maintained with 400 μg/ml Geneticin in the culture medium. […] Experiments are carried out at 24-27° C.
For both the Late INa and Peak INa assays, series resistance compensation is set to 50% and whole-cell compensation is performed automatically. […] Currents through open sodium channels are automatically recorded and stored in the DataXpress2 database (MDS Analytical Technologies, Sunnyvale, Calif.). Analysis is performed using DataXpress2 analysis software and data are compiled in Excel.
Compound stocks are routinely made in glass vials to 10 mM in dimethyl sulfoxide (DMSO). In some cases, when compounds are not soluble in DMSO, they are made in 100% ethanol. Stocks are sonicated as necessary. The extracellular solution for screening Late INa is composed of: 140 mM NaCl, 4 mM KCl, 1.8 mM CaCl2, 0.75 mM MgCl2, and 5 mM HEPES with pH adjusted to 7.4 using NaOH. The extracellular solution for screening Peak INa is composed of: 20 mM NaCl, 120 mM N-methyl-D glucamine, 4 mM KCl, 1.8 mM CaCl2, 0.75 mM MgCl2, and 5 mM HEPES with pH adjusted to 7.4 using HCl. The intracellular solution used to perfuse the inside of the cells for both the Late INa and Peak INa assays contains: 120 mM CsF, 20 mM CsCl, 5 mM EGTA, 5 mM HEPES and pH adjusted to 7.4 with CsOH. […] The 0Na extracellular solution used at the end of each experiment for the Late INa and Peak INa assays to measure baseline current contains: 140 mM N-methyl-D-glucamine; 4 mM KCl; 1.8 mM CaCl2; 0.75 mM MgCl2; 5 mM HEPES and pH was adjusted to 7.4 with HCl.
For the Late INa assay, sodium channels are activated every 10 seconds (0.1 Hz) by depolarizing the cell membrane to −20 mV for 250 milliseconds (ms) from a holding potential of −120 mV. In response to a −20 mV voltage step, typical Nav1.5 sodium currents activate rapidly to a peak negative current and then inactivate nearly completely within […].
All compounds are tested to determine their activity in blocking the late sodium current. Late INa current is generated by adding 10 μM Tefluthrin (pyrethroid) to the extracellular solution while recording Na currents For some experiments, 50 nM ATX II (sea anemone toxin), another late INa activator, was used to generate the late component. […] After establishing the whole cell recording configuration, late INa activators are added to each well 4 times over a 16-17 minute period so that the late component of the Na current reaches a stable value. […] Measurements are made at the end of exposure to the third compound addition and values are normalized to the current level when all Na^+ is removed from the extracellular solution after two additions of 0Na-ECF. Results are reported as percent block of late INa

Chain of wild-type human cardiac sodium channel, hNav1.5 (Q14524 whole entry): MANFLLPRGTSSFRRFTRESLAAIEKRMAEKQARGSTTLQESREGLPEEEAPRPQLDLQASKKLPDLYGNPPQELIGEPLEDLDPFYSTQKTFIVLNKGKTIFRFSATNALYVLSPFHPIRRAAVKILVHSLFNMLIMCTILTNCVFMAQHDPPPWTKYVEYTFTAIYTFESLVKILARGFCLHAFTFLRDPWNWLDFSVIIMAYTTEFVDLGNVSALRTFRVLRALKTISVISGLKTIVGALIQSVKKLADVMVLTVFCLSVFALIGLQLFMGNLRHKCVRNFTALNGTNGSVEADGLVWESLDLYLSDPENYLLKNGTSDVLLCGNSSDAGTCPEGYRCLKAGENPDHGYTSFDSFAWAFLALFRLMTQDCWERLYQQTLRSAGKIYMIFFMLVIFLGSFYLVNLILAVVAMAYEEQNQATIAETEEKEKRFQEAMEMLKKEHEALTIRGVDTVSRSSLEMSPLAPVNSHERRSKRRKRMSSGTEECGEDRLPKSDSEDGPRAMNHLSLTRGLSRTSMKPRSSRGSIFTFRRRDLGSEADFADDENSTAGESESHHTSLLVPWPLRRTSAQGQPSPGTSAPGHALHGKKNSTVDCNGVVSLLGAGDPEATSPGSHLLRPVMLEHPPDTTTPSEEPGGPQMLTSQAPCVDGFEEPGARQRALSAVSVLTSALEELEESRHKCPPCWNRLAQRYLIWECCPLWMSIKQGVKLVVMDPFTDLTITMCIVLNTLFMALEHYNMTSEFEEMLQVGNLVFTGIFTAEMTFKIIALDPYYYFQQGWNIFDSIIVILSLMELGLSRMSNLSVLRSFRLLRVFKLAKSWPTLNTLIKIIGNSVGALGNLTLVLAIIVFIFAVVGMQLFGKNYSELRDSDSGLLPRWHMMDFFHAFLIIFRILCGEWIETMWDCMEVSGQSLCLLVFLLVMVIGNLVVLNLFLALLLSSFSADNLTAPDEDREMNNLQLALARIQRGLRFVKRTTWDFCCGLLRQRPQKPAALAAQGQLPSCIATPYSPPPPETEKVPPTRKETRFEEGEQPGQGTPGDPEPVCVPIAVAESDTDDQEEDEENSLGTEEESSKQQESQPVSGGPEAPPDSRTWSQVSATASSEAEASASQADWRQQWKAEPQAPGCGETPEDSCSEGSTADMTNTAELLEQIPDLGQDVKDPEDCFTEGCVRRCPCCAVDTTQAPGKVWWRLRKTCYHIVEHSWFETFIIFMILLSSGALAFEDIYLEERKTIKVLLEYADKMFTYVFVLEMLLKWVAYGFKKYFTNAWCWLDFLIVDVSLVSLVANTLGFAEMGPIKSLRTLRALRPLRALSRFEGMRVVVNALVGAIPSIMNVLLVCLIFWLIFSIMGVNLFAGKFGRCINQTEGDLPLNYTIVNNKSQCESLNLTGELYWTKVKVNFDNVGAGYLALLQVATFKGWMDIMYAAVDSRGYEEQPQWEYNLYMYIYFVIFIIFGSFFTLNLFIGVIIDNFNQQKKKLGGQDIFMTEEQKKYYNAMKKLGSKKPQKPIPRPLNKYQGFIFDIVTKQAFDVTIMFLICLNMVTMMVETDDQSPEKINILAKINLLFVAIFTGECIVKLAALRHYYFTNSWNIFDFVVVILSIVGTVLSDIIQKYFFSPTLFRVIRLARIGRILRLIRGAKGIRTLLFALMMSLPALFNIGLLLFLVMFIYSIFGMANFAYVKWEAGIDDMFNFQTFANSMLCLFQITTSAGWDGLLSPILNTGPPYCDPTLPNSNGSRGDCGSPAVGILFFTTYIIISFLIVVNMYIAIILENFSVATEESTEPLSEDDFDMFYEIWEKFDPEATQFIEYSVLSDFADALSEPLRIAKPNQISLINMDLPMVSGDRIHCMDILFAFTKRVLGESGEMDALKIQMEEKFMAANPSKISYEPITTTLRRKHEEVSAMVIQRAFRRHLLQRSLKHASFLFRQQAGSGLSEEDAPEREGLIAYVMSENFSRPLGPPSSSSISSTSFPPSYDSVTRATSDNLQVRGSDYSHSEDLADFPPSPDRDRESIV

On to `CN1CCN(Cc2cc(-c3ccc4nnc(C(F)(F)F)n4c3)ccc2OC(F)(F)F)CC1` [BHN-81, 6-{3-[(4-methylpiperazin-1-yl)methyl]-4-(trifluoromethoxy)phenyl}-3-(trifluoromethyl)[1,2,4]triazolo[4,3-a]pyridine], for which the inhibition at 10 µM came to 30.3%. Still for that read-out and setting: with `Cn1cc(-c2nnc3ccc(-c4ccc(OC(F)(F)F)cc4)cn23)cn1` [BHN-82, 3-(1-methyl-1H-pyrazol-4-yl)-6-[4-(trifluoromethoxy)phenyl][1,2,4]triazolo[4,3-a]pyridine] the figure was 38.9%. The same measure, in the same setting: next, `CN(C)Cc1cc(-c2ccc3nnc(C(F)(F)F)n3c2)ccc1OC(F)(F)F` [BHN-83, N,N-dimethyl-1-{2-(trifluoromethoxy)-5-[3-(trifluoromethyl)[1,2,4]triazolo[4,3-a]pyridin-6-yl]phenyl}methanamine]: 29.8%; `CCC(=O)Nc1cc(-c2ccc(OC(F)(F)F)cc2)cn2c(C)nnc12` [BHN-85, N-{3-methyl-6-[4-(trifluoromethoxy)phenyl][1,2,4]triazolo[4,3-a]pyridin-8-yl}propanamide]: 20.5%. As to `CCOC(=O)c1ccc(-c2nnc3ccc(-c4ccc(OC(F)(F)F)cc4)cn23)cc1` [BHN-86, ethyl 4-{6-[4-(trifluoromethoxy)phenyl][1,2,4]triazolo[4,3-a]pyridin-3-yl}benzoate], the inhibition at 1 µM is 82.7% and the inhibition at 10 µM stood at 86.9%. Consider `CCOC(=O)c1cccc(-c2nnc3ccc(-c4ccc(OC(F)(F)F)cc4)cn23)c1` [BHN-87, ethyl 3-{6-[4-(trifluoromethoxy)phenyl][1,2,4]triazolo[4,3-a]pyridin-3-yl}benzoate], for which the inhibition at 1 µM stood at 38.9% and the inhibition at 10 µM was determined as 72.2%.

For `FC(F)(F)c1nnc2ccc(-c3ccc(C4CC4)nc3)cn12` [BHN-88, 6-(6-cyclopropylpyridin-3-yl)-3-(trifluoromethyl)[1,2,4]triazolo[4,3-a]pyridine], the inhibition at 10 µM amounted to 36%.

On to `FC(F)(F)c1nnc2ccc(-c3cnc(C4CC4)nc3)cn12` [BHN-89, 6-(2-cyclopropylpyrimidin-5-yl)-3-(trifluoromethyl)[1,2,4]triazolo[4,3-a]pyridine], for which the inhibition at 10 µM amounted to 20.5%. Take `FC(F)(F)c1nnc2ccc(-c3ccc(C4CC4)cc3)cn12` [BHN-90, 6-(4-cyclopropylphenyl)-3-(trifluoromethyl)[1,2,4]triazolo[4,3-a]pyridine]: the inhibition at 1 µM was 63.4% and the inhibition at 10 µM stood at 74.9%. Take `FC(F)(F)c1ccc(-c2ccc3nnc(C(F)(F)F)n3c2)cn1` [BHN-91, 3-(trifluoromethyl)-6-[6-(trifluoromethyl)pyridin-3-yl][1,2,4]triazolo[4,3-a]pyridine]: the inhibition at 10 µM amounted to 46.7%. In the case of `FC(F)(F)COc1ccc(-c2ccc3nnc(C(F)(F)F)n3c2)cn1` [BHN-92, 6-[6-(2,2,2-trifluoroethoxy)pyridin-3-yl]-3-(trifluoromethyl)[1,2,4]triazolo[4,3-a]pyridine], the inhibition at 1 µM stood at 63.5% and the inhibition at 10 µM was determined as 76.3%. Turning to `CS(=O)(=O)Nc1ccccc1-c1nnc2ccc(-c3ccc(OC(F)(F)F)cc3)cn12` [BHN-93, N-(2-{6-[4-(trifluoromethoxy)phenyl][1,2,4]triazolo[4,3-a]pyridin-3-yl}phenyl)methanesulfonamide], the inhibition at 10 µM came out at 21%.

As to `FC(F)(F)c1nnc2ccc(-c3ccc(Oc4cnccn4)cc3)cn12` [BHN-94, 6-[4-(pyrazin-2-yloxy)phenyl]-3-(trifluoromethyl)[1,2,4]triazolo[4,3-a]pyridine], the inhibition at 10 µM stood at 27.5%. For `FC(F)(F)c1nnc2ccc(-c3nnc(C4CC4)s3)cn12` [BHN-96, 6-(5-cyclopropyl-1,3,4-thiadiazol-2-yl)-3-(trifluoromethyl)[1,2,4]triazolo[4,3-a]pyridine], the inhibition at 1 µM is 20.3%. For `c1ccc(Oc2ccc(-c3ccc4nnnn4c3)cc2)cc1` [BHN-97, 6-(4-phenoxyphenyl)tetrazolo[1,5-a]pyridine], the inhibition at 1 µM worked out at 73.2%.
